We go through 22 molecules from ChEMBL document CHEMBL2157905, “Inhibition of therapeutically important polymerases with high affinity bis-intercalators” (Bioorg Med Chem Lett, 2012).

In assay [1] the target is T1, Human immunodeficiency virus type 1 reverse transcriptase (Human immunodeficiency virus 1, UniProt Q72547). The assay is described as follows: Inhibition of HIV-1 reverse transcriptase using 25 ug/mL of Poly(rA).p(dT) (12 to 18) as substrate after 30 mins by single point PCR assay.
Assay [2] deals with T1, Human immunodeficiency virus type 1 reverse transcriptase. Put plainly: Inhibition of HIV-1 reverse transcriptase using 25 ug/mL of Poly(rA).p(dT) (12 to 18) as substrate after 30 mins by single point PCR assay in presence of 340 uM base pair of calf thymus DNA.
Assay [3] has the same target. Put plainly: Inhibition of HIV-1 reverse transcriptase using 0.05 ug/mL of Poly(rA).p(dT) (12 to 18) as substrate after 30 mins by single point PCR assay.
Assay [4] shares this target. The assay is described as follows: Inhibition of HIV-1 reverse transcriptase using Poly(rA).p(dT) (12 to 18) as substrate after 30 mins by single point PCR assay. To be noted: for pIC50: read-out: IC50.
A short description of assay [5]: Inhibition of partially purified telomerase by fluorescence-based assay.
Assay [6] is described as follows: Inhibition of telomerase in human HeLa cell extract by fluorescence-based assay. The assay is classed as cell-free.
Assay [7] deals with T1, Human immunodeficiency virus type 1 reverse transcriptase. Put plainly: Inhibition of HIV-1 reverse transcriptase using 0.5 ug/mL of Poly(rA).p(dT) (12 to 18) as substrate after 30 mins by single point PCR assay.
Assay [8] in a line: Inhibition of telomerase.

pIC50: −log10 of the molar value. Starred links: 1 amine or outer side, 2 acyl side, 3 side chain; linkers in the order of their positions; H or OH if unused. Positions of bridges follow the written chain, without caps; N, C: chain ends. Non-standard residues stand in square brackets, D forms with d. Residues, ends and D or L forms follow the SMILES beside them. Chains are numbered I, II in the order given. Actinocin(9to1) = Cc1c2oc3c(C)ccc(C(=O)[*:1])c3nc-2c(C(=O)[*:2])c(N)c1=O; NMeV = CN[C@H](C(=O)O)C(C)C; Sar = CNCC(=O)O

One may read the pIC50 as −log10 of the IC50, conventionally taken in molar units. Turning to `Nc1ccc2c(c1)c(-c1ccccc1)[n+](CCCNCCNCCC[n+]1c(-c3ccccc3)c3cc(N)ccc3c3ccc(N)cc31)c1cc(N)ccc21`, the values for the pIC50 in assay [1], in assay [2] and in assay [3] were 5.64, 5.07 and 7.97, respectively.
As for `Cc1c2oc3c(C)c(N)cc(C(=O)N[C@@H]4C(=O)N[C@H](C(C)C)C(=O)N5CCC[C@H]5C(=O)N(C)CC(=O)N(C)[C@@H](C(C)C)C(=O)O[C@@H]4C)c3nc-2c(C(=O)N[C@@H]2C(=O)N[C@H](C(C)C)C(=O)N3CCC[C@H]3C(=O)N(C)CC(=O)N(C)[C@@H](C(C)C)C(=O)O[C@@H]2C)c(N)c1=O`, the pIC50 in assay [4] is 4.03.
For the molecule `O=C(O)c1ccc2cc3ccccc3cc2c1`, in assay [4], the IC50 entry is given as “Not Active”.
With `O=C(O)c1cccc2cc3ccccc3cc12`, the IC50 result in assay [4] is given as “Not Active”.
With `O=C(O)c1c2ccccc2nc2ccccc12`, the IC50 entry in assay [4] is “Not Active”.
In the case of `NC(=O)[C@H](CCCNC(=O)c1ccc(C[n+]2c(-c3ccccc3)c3cc(N)ccc3c3ccc(N)cc32)cc1)NC(=O)CCCCCNC(=O)[C@@H](N)CCCNC(=O)c1ccc(C[n+]2c(-c3ccccc3)c3cc(N)ccc3c3ccc(N)cc32)cc1`, in assay [3], the negative logarithm of the IC50 (pIC50) is 8.31.
With `NC(=O)[C@H](CCCNC(=O)c1ccc(C[n+]2c(-c3ccccc3)c3cc(N)ccc3c3ccc(N)cc32)cc1)NC(=O)CCNC(=O)C(N)CNC(=O)c1ccc(C[n+]2c(-c3ccccc3)c3cc(N)ccc3c3ccc(N)cc32)cc1` (stereo not given in full), the pIC50 in assay [3] is 8.04.
In assay [3], `NC(=O)[C@H](CCCCNC(=O)c1ccc(C[n+]2c(-c3ccccc3)c3cc(N)ccc3c3ccc(N)cc32)cc1)NC(=O)CCCNC(=O)[C@@H](N)CCCCNC(=O)c1ccc(C[n+]2c(-c3ccccc3)c3cc(N)ccc3c3ccc(N)cc32)cc1` showed a pIC50 of 7.98.
The molecule `NC(=O)C(CNC(=O)c1ccc(C[n+]2c(-c3ccccc3)c3cc(N)ccc3c3ccc(N)cc32)cc1)NC(=O)[C@@H](N)CCCNC(=O)c1ccc(C[n+]2c(-c3ccccc3)c3cc(N)ccc3c3ccc(N)cc32)cc1` (stereo not given in full) gave a pIC50 in assay [3] of 7.65.
In assay [3], `NC(=O)C(CNC(=O)c1ccc(C[n+]2c(-c3ccccc3)c3cc(N)ccc3c3ccc(N)cc32)cc1)NC(=O)CCCCCNC(=O)[C@@H](N)CCCCNC(=O)c1ccc(C[n+]2c(-c3ccccc3)c3cc(N)ccc3c3ccc(N)cc32)cc1` (stereo not given in full) showed a negative logarithm of the IC50 (pIC50) of 7.51.
Turning to `NCCCC[C@H](NC(=O)CCNC(=O)C(N)CN)C(N)=O` (stereo not given in full), the pIC50 in assay [5] is 7.00; in assay [6] it was 6.22.
In the case of `CCOc1ccc2nc3cc(N)ccc3c(N)c2c1`, the pIC50 in assay [4] was 4.70.
Turning to `COc1ccc2nc3cc(Cl)ccc3c(N)c2c1`, the IC50 entry in assay [4] is listed as “Not Active”.
Take `COc1ccc2nc3cc(Cl)ccc3c(NCCCNCCCCNCCCNc3c4ccc(Cl)cc4nc4ccc(OC)cc34)c2c1` [ACRIDINE DIMER]: the figures for the pIC50 in assay [1], in assay [7] and in assay [3] were 4.89, 6.40 and 6.66, respectively.
With `CN(C)c1ccc2cc3ccc(N(C)C)cc3nc2c1` [ACRIDINE ORANGE], in assay [4], the pIC50 is 3.70.
`Cc1cc2cc3cc(C)c(N)cc3nc2cc1N` [ACRIDINE YELLOW]: the pIC50 in assay [4] is 4.49.
Turning to `Cc1c2oc3c(C)ccc(C(=O)N[C@@H]4C(=O)N[C@H](C(C)C)C(=O)N5CCC[C@H]5C(=O)N(C)CC(=O)N(C)[C@@H](C(C)C)C(=O)O[C@@H]4C)c3nc-2c(C(=O)N[C@@H]2C(=O)N[C@H](C(C)C)C(=O)N3CCC[C@H]3C(=O)N(C)CC(=O)N(C)[C@@H](C(C)C)C(=O)O[C@@H]2C)c(N)c1=O` [DACTINOMYCIN] (I: T[dV]P[Sar][NMeV] / II: T[dV]P[Sar][NMeV]; ester I:1-I:C, II:1-II:C; linker I:N-II:N via Actinocin(9to1)), the pIC50 in assay [4] is 3.57.
As to `COc1cccc2c1C(=O)c1c(O)c3c(c(O)c1C2=O)C[C@@](O)(C(C)=O)C[C@@H]3O[C@H]1C[C@H](N)[C@H](O)[C@H](C)O1` [DAUNORUBICIN], in assay [4], the pIC50 is 3.86.
Still for that read-out and setting: the same measure for `Cc1c2ccncc2c(C)c2c1[nH]c1ccccc12` [ELLIPTECINE]: 3.74; for `CC[n+]1c(-c2ccccc2)c2cc(N)ccc2c2ccc(N)cc21` [HOMIDIUM BROMIDE]: 5.70.
For the molecule `CC[n+]1c(-c2ccccc2)c2cc(N)ccc2c2ccc(N)cc21` [HOMIDIUM], the pIC50 is 5.66 in assay [1], 5.74 in assay [7], 5.68 in assay [3] and 5.48 in assay [8].
In the case of `CC[N+](C)(CC)CCC[n+]1c(-c2ccccc2)c2cc(N)ccc2c2ccc(N)cc21` [PROPIDIUM], in assay [4], the pIC50 was 5.52.
